Source: patent publication US11572354B2, “Inhibitor of indoleamine 2,3-dioxygenase-1 and methods of manufacture and use thereof” (UNIVERSITY HEALTH NETWORK, priority 2018, dated 2023)
Like-named read-outs stand apart in the source and are kept apart here.

Legend:
human IDO1 [1] = target: T1, human IDO1 (Homo sapiens (Human), UniProt P14902); assay: IDO1 inhibition in HEK293/IDO1 transfected cells; assay type: cell-based; conditions: HEK293/TRIPZ-IDO1 cells
[2] = Tissue protein binding (micro-equilibrium dialysis); assay type: in vitro ADME, mice; conditions: 6 hours at 37° C.
human IDO1 [3] = target: T1, human IDO1; assay: IDO1 enzymatic inhibition assay; assay type: biochemical
[4] = Pharmacokinetics studies in mice (plasma and brain concentration); assay type: in vivo; conditions: for Kp at 0.5 h / Kp at 2 h: brain/plasma
Procedure: In order to assess the pharmacokinetics of the IDO1 inhibitors of the present application, two inhibitors were administered to mice at 20 mg/kg via PO (G29), or IP (G28). For a preliminary pharmacokinetic profile, three animals were sacrificed per time point at 30 minutes and two hours post-dose. For a full pharmacokinetic profile, three animals were sacrificed per time point at 15 minute, 30 minutes, 1, 2, 4, 6, 8, and 24 hours post-dose.
Blood samples were collected via cardiac puncture, the mice were perfused with phosphate buffered saline (PBS) and the brains were collected. The blood and brain samples were protein precipitated with ice-cold acetonitrile and the concentration of the test compound in the resulting supernatant was quantified using LC/MS/MS. For the full pharmacokinetic profile, the parameters were computed using the “PK” package with the R statistical computing software using a non-compartmental analysis.

TDO2 = TDO2 (Homo sapiens, UniProt P48775); assay: TDO2 enzymatic inhibition assay; assay type: biochemical; conditions: 500 μM L-Tryptophan, means N≥3; read-out: TDO IC50
Chain of TDO2 (P48775 whole entry, looked up): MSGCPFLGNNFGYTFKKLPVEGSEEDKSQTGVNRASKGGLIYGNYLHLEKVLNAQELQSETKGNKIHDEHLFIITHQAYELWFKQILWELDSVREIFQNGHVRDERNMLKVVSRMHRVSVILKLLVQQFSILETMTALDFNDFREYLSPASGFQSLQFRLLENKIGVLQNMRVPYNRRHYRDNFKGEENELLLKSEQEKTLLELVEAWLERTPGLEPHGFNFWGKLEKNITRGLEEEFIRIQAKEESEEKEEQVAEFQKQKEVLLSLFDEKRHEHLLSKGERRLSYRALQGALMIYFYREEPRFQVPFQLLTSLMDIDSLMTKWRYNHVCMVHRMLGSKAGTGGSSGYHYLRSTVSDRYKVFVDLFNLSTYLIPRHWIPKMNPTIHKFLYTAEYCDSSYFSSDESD

[5] = 24 h after doxycycline induction, means N≥3
[6] = recombinant human IDO1, 200 μM L-Tryptophan, means N≥3

T1 sequence (P14902 whole entry): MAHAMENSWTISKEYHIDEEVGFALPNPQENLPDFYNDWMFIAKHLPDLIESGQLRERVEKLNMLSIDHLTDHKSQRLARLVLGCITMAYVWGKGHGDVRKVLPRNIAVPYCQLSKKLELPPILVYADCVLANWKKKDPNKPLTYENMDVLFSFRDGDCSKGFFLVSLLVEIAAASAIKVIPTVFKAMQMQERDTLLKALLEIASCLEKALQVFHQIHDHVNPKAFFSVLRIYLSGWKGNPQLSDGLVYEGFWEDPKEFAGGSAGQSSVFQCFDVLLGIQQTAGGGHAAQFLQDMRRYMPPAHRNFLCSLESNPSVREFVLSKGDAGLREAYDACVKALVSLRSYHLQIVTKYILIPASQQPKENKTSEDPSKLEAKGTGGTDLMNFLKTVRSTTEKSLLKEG

SMILES: Brc1ccc2[nH]c(Cn3cncc3-c3ccc[nH]3)cc2c1 [Compound G28, 2-((5-(1H-pyrrol-2-yl)-1H-imidazol-1-yl)methyl)-5-bromo-1H-indole]
- EC50 (human IDO1 [1]): 470 nM
- EC50 (human IDO1 [1]; [5]): 467 nM
- fraction unbound at 6 h ([2]; pooled brain homogenate in PBS (1:3 m:v), pooled mouse brain homogenized with PBS (1:3), read-out: % FU Brain): 0.0161
- fraction unbound at 6 h ([2]; pooled mouse plasma, read-out: fu,plasma / % FU Plasma): 0.0117
- IC50 (human IDO1 [3]; recombinant human IDO1): 310 nM
- IC50 (human IDO1 [3]; [6]): 309 nM
- Tissue Concentration Plasma Mean ([4]; 20 mg/kg IP, 0.25 hr): 1880 ng/mL
- Tissue Concentration Plasma Mean ([4]; 20 mg/kg IP, 0.5 hr): 1840 ng/mL
- Tissue Concentration Plasma Mean ([4]; 20 mg/kg IP, 1 hr): 1410 ng/mL
- Tissue Concentration Plasma Mean ([4]; 20 mg/kg IP, 2 hr): 562 ng/mL
- Tissue Concentration Plasma Mean ([4]; 20 mg/kg IP, 4 hr): 133 ng/mL
- Tissue Concentration Plasma Mean ([4]; 20 mg/kg IP, 6 hr): BQL
- Tissue Concentration Plasma Mean ([4]; 20 mg/kg IP, 8 hr): BQL
- AUC(0-inf) ([4]; mouse, 20 mg/kg IP, Brain): 14200 ng·h/mL
- AUC(0-t) ([4]; mouse, 20 mg/kg IP, Brain): 9870 ng·h/mL
- Cmax ([4]; mouse, 20 mg/kg IP, Brain): 4020 ng/mL
- Tmax ([4]; mouse, 20 mg/kg IP, Brain): 30 min
- half-life ([4]; mouse, 20 mg/kg IP, Brain): 142 min
- AUC(0-inf) ([4]; mouse, 20 mg/kg IP, Plasma): 2920 ng·h/mL
- AUC(0-t) ([4]; mouse, 20 mg/kg IP, Plasma): 2910 ng·h/mL
- Cmax ([4]; mouse, 20 mg/kg IP, Plasma): 1880 ng/mL
- Tmax ([4]; mouse, 20 mg/kg IP, Plasma): 15 min
- half-life ([4]; mouse, 20 mg/kg IP, Plasma): 49.8 min
- concentration at 0.25 h ([4]; mouse, brain, ip, 20 mg/kg, 20 mg/kg IP, 0.25 hr, read-out: Tissue Concentration Brain Mean): 1660 ng/g
- concentration at 0.5 h ([4]; mouse, brain, ip, 20 mg/kg, 20 mg/kg IP, 0.5 hr, read-out: Tissue Concentration Brain Mean): 4020 ng/g
- concentration at 1 h ([4]; mouse, brain, ip, 20 mg/kg, 20 mg/kg IP, 1 hr, read-out: Tissue Concentration Brain Mean): 3520 ng/g
- concentration at 2 h ([4]; mouse, brain, ip, 20 mg/kg, 20 mg/kg IP, 2 hr, read-out: Tissue Concentration Brain Mean): 2760 ng/g
- concentration at 4 h ([4]; mouse, brain, ip, 20 mg/kg, 20 mg/kg IP, 4 hr, read-out: Tissue Concentration Brain Mean): 1370 ng/g
- concentration at 6 h ([4]; mouse, brain, ip, 20 mg/kg, 20 mg/kg IP, 6 hr, read-out: Tissue Concentration Brain Mean): 552 ng/g
- concentration at 8 h ([4]; mouse, brain, ip, 20 mg/kg, 20 mg/kg IP, 8 hr, read-out: Tissue Concentration Brain Mean): 510 ng/g

SMILES: Oc1ccccc1-c1cncn1Cc1cc2cc(Br)ccc2[nH]1 [Compound 10c, 2-(1-((5-bromo-1H-indol-2-yl)methyl)-1H-imidazol-5-yl)phenol]
- IC50 (TDO2): 158000 nM

SMILES: Brc1ccc2[nH]c(-c3cnc[nH]3)cc2c1 [Compound 6, 5-bromo-2-(1H-imidazol-5-yl)-1H-indole]
- IC50 (human IDO1 [3]; [6]): 30000 nM

SMILES: Brc1ccc2[nH]c(-c3cncn3Cc3ccccc3)cc2c1 [Compound 9a, 2-(1-benzyl-1H-imidazol-5-yl)-5-bromo-1H-indole]
- increase in potency versus compound 6 (human IDO1 [3]; IDO1 IC50, versus compound 6): two-fold

SMILES: COc1ccc(Cn2cncc2-c2cc3cc(Br)ccc3[nH]2)cc1 [Compound 9d, 5-bromo-2-(1-(4-methoxybenzyl)-1H-imidazol-5-yl)-1H-indole]
- EC50 (human IDO1 [1]; [5]): 4300 nM
- IC50 (human IDO1 [3]; [6]): 21000 nM

SMILES: Fc1ccc2[nH]c(Cn3cncc3-c3ccc[nH]3)cc2c1 [Compound G29, 2-((5-(1H-pyrrol-2-yl)-1H-imidazol-1-yl)methyl)-5-fluoro-1H-indole]
- EC50 (human IDO1 [1]; [5]): 250 nM
- IC50 (human IDO1 [3]; [6]): 230 nM
- concentration at 0.5 h ([4]; mouse, brain, po, 20 mg/kg, 20 mg/kg PO, 0.5 Hr, individual mouse M1, read-out: Brain concentration M1): 2390 ng/mL
- concentration at 0.5 h ([4]; mouse, brain, po, 20 mg/kg, 20 mg/kg PO, 0.5 Hr, individual mouse M2, read-out: Brain concentration M2): 869 ng/mL
- concentration at 0.5 h ([4]; mouse, brain, po, 20 mg/kg, 20 mg/kg PO, 0.5 Hr, individual mouse M3, read-out: Brain concentration M3): 2560 ng/mL
- concentration at 0.5 h ([4]; mouse, brain, po, 20 mg/kg, 20 mg/kg PO, 0.5 Hr, read-out: Brain concentration Mean): 1940 ng/mL
- concentration at 2 h ([4]; mouse, brain, po, 20 mg/kg, 20 mg/kg PO, 2 Hr, individual mouse M4, read-out: Brain concentration M4): 3450 ng/mL
- concentration at 2 h ([4]; mouse, brain, po, 20 mg/kg, 20 mg/kg PO, 2 Hr, individual mouse M5, read-out: Brain concentration M5): 2050 ng/mL
- concentration at 2 h ([4]; mouse, brain, po, 20 mg/kg, 20 mg/kg PO, 2 Hr, read-out: Brain concentration Mean): 2750 ng/mL
- Kp at 0.5 h ([4]; mouse, po, 20 mg/kg, 20 mg/kg PO, 0.5 Hr, individual mouse M1, read-out: B/P Ratio M1): 0.9
- Kp at 0.5 h ([4]; mouse, po, 20 mg/kg, 20 mg/kg PO, 0.5 Hr, individual mouse M2, read-out: B/P Ratio M2): 0.5
- Kp at 0.5 h ([4]; mouse, po, 20 mg/kg, 20 mg/kg PO, 0.5 Hr, individual mouse M3, read-out: B/P Ratio M3): 0.9
- Kp at 0.5 h ([4]; mouse, po, 20 mg/kg, 20 mg/kg PO, 0.5 Hr, read-out: B/P Ratio Mean): 0.8
- Kp at 2 h ([4]; mouse, po, 20 mg/kg, 20 mg/kg PO, 2 Hr, individual mouse M4, read-out: B/P Ratio M4): 5.5
- Kp at 2 h ([4]; mouse, po, 20 mg/kg, 20 mg/kg PO, 2 Hr, individual mouse M5, read-out: B/P Ratio M5): 5
- Kp at 2 h ([4]; mouse, po, 20 mg/kg, 20 mg/kg PO, 2 Hr, read-out: B/P Ratio Mean): 5.3
- concentration at 0.5 h ([4]; mouse, plasma, po, 20 mg/kg, 20 mg/kg PO, 0.5 Hr, individual mouse M1, read-out: Plasma concentration M1): 2660 ng/mL
- concentration at 0.5 h ([4]; mouse, plasma, po, 20 mg/kg, 20 mg/kg PO, 0.5 Hr, individual mouse M2, read-out: Plasma concentration M2): 1610 ng/mL
- concentration at 0.5 h ([4]; mouse, plasma, po, 20 mg/kg, 20 mg/kg PO, 0.5 Hr, individual mouse M3, read-out: Plasma concentration M3): 2740 ng/mL
- concentration at 0.5 h ([4]; mouse, plasma, po, 20 mg/kg, 20 mg/kg PO, 0.5 Hr, read-out: Plasma concentration Mean): 2330 ng/mL
- concentration at 2 h ([4]; mouse, plasma, po, 20 mg/kg, 20 mg/kg PO, 2 Hr, individual mouse M4, read-out: Plasma concentration M4): 629 ng/mL
- concentration at 2 h ([4]; mouse, plasma, po, 20 mg/kg, 20 mg/kg PO, 2 Hr, individual mouse M5, read-out: Plasma concentration M5): 408 ng/mL
- concentration at 2 h ([4]; mouse, plasma, po, 20 mg/kg, 20 mg/kg PO, 2 Hr, read-out: Plasma concentration Mean): 519 ng/mL
